We go through 10 compounds from US6576261B1, “Potentiation of inclusion complex formation of cyclodextrin derivatives” (priority 1999, dated 2003).

Structures are written as SMILES.

Data set [1] can be described thus: Solubilization of additional guests by two different hosts. The data set is classed as physicochemical. The following applies: for solubility at 1 week: water containing solubilising hosts, aqueous with cosolvent or surfactant or cyclodextrin, thermodynamic from solid. An excerpt:
Techniques were as described in Example 1 and water was used as a solvent. As shown in Table for Example 4, complexes of two hosts increased the solubility of retinoic acid and taxol compared to the solubility obtained with individual hosts.

A short description of data set [2]: Solubilization of choline and sodium salts of FTS and other acidic drugs by cyclodextrins. How it is done:
The solid obtained thereby was heated on a boiling water bath.
In this procedure, FTS (10 mg, 28 micromoles) was dissolved with warming in ethanol (20 microliters) and an aqueous solution of sodium hydroxide (30 microliters of 1 M NaOH carbonate free, i.e., 30 micromoles) was added. […] This clear solution then was added to the solution of Pitha methyl derivative (100 mg) in isotonic phosphate buffered saline (1 ml, pH 7.4).
In these investigations, choline salts were prepared by extraction with organic solvents of mixtures of sodium salts of the anion in question and choline chloride. There mixtures were either solid or in aqueous solutions.

Data set [3] can be described thus: physchem. An excerpt: A slight excess of FTS was equilibrated with water containing one host at 5% concentration or two hosts, each at 5% concentration, by rotation for a week. The suspension was then filtered through a millipore filter and the concentration of FTS in filtrate determined by ultraviolet spectrophotometry. […] The cooperativity index reflects the improvement in solubility obtained with each combination of two hosts over the solubility obtained with each of the individual hosts involved in the two-host system. It is computed by dividing the obtained solubility with two hosts by the sum of the individual solubilities obtained with each component.

Where [4] appears, read: host combination DIMEB - TRIMEB (first line, r7), water.
Where [5] appears, read: host combination DIMEB - TRIMEB (printed a second time, r8), water.
[6] abbreviates: host combination TRIMEA - DIMEB, water.
Setting [7] is: host combination TRIMEA - Pitha Methyl 258, water.
Where [8] appears, read: host combination TRIMEA - RAMEB, water.
[9] abbreviates: host combination TRIMEA - TRIMEB, water.

In the case of `C[C@@H]1[C@H](O)[C@@H](C)/C=C/C=C/C=C/C=C/C=C/C=C/C=C/[C@H](O[C@@H]2O[C@H](C)[C@@H](O)[C@H](N)[C@@H]2O)C[C@@H]2O[C@](O)(C[C@@H](O)C[C@@H](O)[C@H](O)CC[C@@H](O)C[C@@H](O)CC(=O)O[C@H]1C)C[C@H](O)[C@H]2C(=O)O` [Amphotericin B], the Cooperativity is listed as 0.7 in data set [1] (setting [4]), 0.9 in data set [1] (setting [5]) and 0.9 in data set [1] (setting [6]). Further, the Solubility (usually how much of the substance goes into solution per volume) in data set [1] (setting [4]) was 131 µg/mL; in data set [1] (setting [5]) it was 158 µg/mL; in data set [1] (setting [6]), 185 µg/mL. The “solubilization of choline salts” value in data set [2] is reported as “easily solubilized”.
Turning to `CC1=C(/C=C/C(C)=C/C=C/C(C)=C/C(=O)O)C(C)(C)CCC1` [Retinoic Acid], the Cooperativity in data set [1] (setting [6]) was determined as 1.45; in data set [1] (setting [7]), 1.13; in data set [1] (setting [8]), 1.08; in data set [1] (setting [9]) it was 0.7. In addition, the solubility (in general, how much of the substance goes into solution per volume) at 1 week in data set [1] (setting [6]) is 71 µg/mL; in data set [1] (setting [7]), 52 µg/mL; in data set [1] (setting [8]), 56 µg/mL; in data set [1] (setting [9]), 12 µg/mL. In addition, the “single, highly methylated cyclodextrin host outperformed the current standard” value in data set [3] (1 week) was found to be 2.5 times.
As to `CC(=O)O[C@H]1C(=O)[C@@]2(C)[C@H]([C@H](OC(=O)c3ccccc3)[C@]3(O)C[C@H](OC(=O)[C@H](O)[C@@H](NC(=O)c4ccccc4)c4ccccc4)C(C)=C1C3(C)C)[C@]1(OC(C)=O)CO[C@@H]1C[C@@H]2O` [Taxol], in data set [1] (setting [6]), the Cooperativity was found to be 1.49 and the solubility at 1 week was 1000 µg/mL. The Solubility in data set [3] (1 week) was determined as 380 µg/mL. Further, the solubility at 1 week in data set [3] (aqueous with cosolvent or surfactant or cyclodextrin, thermodynamic from solid, Solubility) was determined as 290 µg/mL.
For the compound `CC(C)=CCC/C(C)=C/CC/C(C)=C/CSc1ccccc1C(=O)[O-].C[N+](C)(C)CCO` [choline salt of FTS], the “precipitate formation upon acidification” value in data set [2] (cyclodextrin-solubilized salts) is “less prone to form precipitate upon acidification than sodium salts”. The pH of solution in data set [2] (powder of choline salt of FTS with methylated beta-cyclodextrin dissolved in water, paper strip indicator) turned out to be 6.5. Moreover, in data set [2] (solid powder of choline salt of FTS with methylated beta-cyclodextrin), the “dissolution of the powder in water” value is “dissolved easily and fully in water”.
As to `CC(C)Cc1ccc(C(C)C(=O)O)cc1` (centres unmarked) [ibuprofen], in data set [2], the “solubilization of choline salts” value is “easily solubilized”.
The same measure, in the same setting: as for `COc1ccc2c(c1)c(CC(=O)O)c(C)n2C(=O)c1ccc(Cl)cc1` [indomethacin], the entry is “easily solubilized”; as for `CN1C(C(=O)Nc2ccccn2)=C(O)c2ccccc2S1(=O)=O` [piroxicam], “easily solubilized”.
For `O=C(O)c1ccccc1O` [salicylic acid], the “solubilization of choline salts” value in data set [2] is on record as “easily solubilized”.
Still for that read-out and setting: to `Nc1ccc(S(=O)(=O)Nc2ncccn2)cc1` [sulfadiazine] belongs “easily solubilized”; to `Cc1ccc(C(=O)Nc2ccc(S(=O)(=O)O)c3cc(S(=O)(=O)O)cc(S(=O)(=O)O)c23)cc1NC(=O)c1cccc(NC(=O)Nc2cccc(C(=O)Nc3cc(C(=O)Nc4ccc(S(=O)(=O)O)c5cc(S(=O)(=O)O)cc(S(=O)(=O)O)c45)ccc3C)c2)c1` [suramin], “easily solubilized”.
